{"source": "patent US20150094217A1", "about": "“TEST FOR DIAGNOSING RESISTANCE TO AZACITIDINE” (UNIVERSITÉ NICE SOPHIA ANTIPOLIS, priority 2012, published 2015)", "key": {"[1]": {"assay": "Overall survival (Kaplan-Meier) of MDS or AML patients treated with AZA, cohort 1", "type": "in vivo, human", "description": "The comparison of the overall survival with transplantation according to Kaplan-Meier was examined for patients with MDS or AML treated with AZA, as well as the percentage of cells expressing BCL2L10 in their bone marrow.\nAn overall survival of 3 months was estimated at 95% for the sub-groups weakly expressing BCL2L10 compared with 51% for the sub-groups strongly expressing BCL2L10. For all of the patients in the sub-group strongly expressing BCL2L10, the disease progressed."}, "SKM1-S cells": {"system": "SKM1-S cells", "assay": "Cell metabolism by XTT test after azacitidine stimulation", "type": "cell-based", "details": "1 μM azacitidine, 24 h", "procedure": "The SKM1-S and SKM1-R cells are transfected with an interfering RNA:Luc siRNA, BCL2L10 siRNA or Bcl-2 siRNA. After 72 h of transfection, the cells are stimulated with 1 μM of azacitidine.\nIn FIG. 7, the cell metabolism is measured 24 hours after stimulation by means of the XTT test ([…]). The results shown correspond to the average standard error of the mean (±SEM) of three independent experiments performed four times.\nTo determine whether the overexpression of BCL2L10 is a cause rather than a consequence of azacitidine resistance, the SKM1-S and SKM1-R cells were transfected with a control siRNA or with siRNA directed against one or the other of the BCL2L10 or Bcl-2 proteins, then treated for 24 h with or without azacitidine, before determining cell viability and apoptosis. […] In addition, apoptosis was the main mechanism by which the extinction of the expression of the BCL2L10 gene enabled azacitidine sensitization by increasing the quantity of active caspase-3."}}}
{"compound": "Nc1ncn([C@@H]2O[C@H](CO)[C@@H](O)[C@H]2O)c(=O)n1", "note": "[Azacitidine]", "values": [{"measurement": "overall survival of 3 months", "setting": "[1]; sub-groups strongly expressing BCL2L10, cohort 1", "result": 51, "unit": "%"}, {"measurement": "overall survival of 3 months", "setting": "[1]; sub-groups weakly expressing BCL2L10, cohort 1", "result": 95, "unit": "%"}, {"measurement": "cell metabolism", "setting": "SKM1-S cells", "result": "loss in cell metabolism"}]}
